From patent US20250092056A1, “URACIL DERIVATIVES HAVING VIRUS REPLICATION INHIBITORY ACTIVITY AND PHARMACEUTICAL COMPOSITION COMPRISING THE SAME” (Shionogi & Co., Ltd., priority 2022, published 2025) come the findings set out here.

The target of experiment [1] is Recombinant SARS-CoV-2 3CL Protease (Severe acute respiratory syndrome coronavirus 2 (2019-nCoV) (SARS-CoV-2), UniProt P0DTD1). Put plainly: biochemical. Format: biochemical. Conditions: 50% SARS-CoV-2 3CL protease inhibitory concentration; read-out: IC50.
Another experiment relates to SARS-CoV-2. Put plainly: Cytopathic effect (CPE) suppression effect confirmation test using HEK293T/ACE2-TMPRSS2 cells. The following applies: Severe acute respiratory syndrome coronavirus 2, HEK-293T; 50% SARS-CoV-2 infected cell death inhibitory concentration; HEK293T/ACE2-TMPRSS2 cells; read-out: EC50. Format: cell-based. On the technique in general: Cytopathic effects are the visible damage that an infection or toxin causes in cultured cells.

A value given as a limit tells only on which side of the number the result lay.

As usually defined, the IC50 is the concentration that gives 50% inhibition. By EC50 is commonly meant the midpoint of the concentration-response curve.

For the compound `N#CCn1c(N2CC(OC(F)F)C2)c(-c2ccc(F)c(Cl)c2)c(=O)n(-c2cncc(Cl)c2)c1=O` [Compound I-298], the IC50 in experiment [1] was < 0.01 µM. In the experiment on SARS-CoV-2, the concentration giving a half-maximal response (EC50) was < 0.1 µM.
On the same counts, the results for `Cc1c(-c2ccc(F)c(Cl)c2)c(=O)n(-c2cncc(Cl)c2)c(=O)n1CC#N` [Compound I-299] are < 0.01 µM and < 0.1 µM.
In the same order, the values of `N#CCn1c(N2CC(F)(C3CC3)C2)c(-c2ccc(F)c(Cl)c2)c(=O)n(-c2cncc(F)c2)c1=O` [Compound I-300] are < 0.01 µM and < 0.1 µM.
In the same order, the values of `CC(C)=Cc1c(-c2ccc(F)c(Cl)c2)c(=O)n(-c2cncc(Cl)c2)c(=O)n1CC#N` [Compound I-301] are < 0.01 µM and < 0.1 µM.
For the compound `Cn1ccc(-c2c(-c3ccc(F)c(Cl)c3)c(=O)n(-c3cncc(Cl)c3)c(=O)n2CC#N)n1` [Compound I-302], the 50% inhibitory concentration (IC50) in experiment [1] was < 0.01 µM. Further, the EC50 with SARS-CoV-2 was < 0.1 µM.
In the same order, the values of `Cn1ccc(-c2c(-c3ccc(F)c(Cl)c3)c(=O)n(-c3cncc(Cl)c3)c(=O)n2CC#N)cc1=O` [Compound I-303] are < 0.01 µM and < 0.1 µM.
Turning to `N#CCn1c(N2CC3(C2)CC(F)(F)C3)c(-c2ccc(F)c(Cl)c2)c(=O)n(-c2onc3cc(F)ccc23)c1=O` [Compound I-304], the half-maximal inhibitory concentration (IC50) in experiment [1] was < 0.01 µM. Moreover, the half-maximal effective concentration (EC50) with SARS-CoV-2 was < 0.1 µM.
Regarding `N#CCn1c(N2CCC(F)(C#N)CC2)c(-c2ccc(F)c(Cl)c2)c(=O)n(-c2cncc(Cl)c2)c1=O` [Compound I-305], the 50% inhibitory concentration (IC50) in experiment [1] was < 0.01 µM. Moreover, the concentration giving a half-maximal response (EC50) in the experiment on SARS-CoV-2 was < 0.1 µM.
On the same counts, the results for `CC(C)(O)CCc1c(-c2ccc(F)c(Cl)c2)c(=O)n(-c2cncc(Cl)c2)c(=O)n1CC#N` [Compound I-306] are < 0.01 µM and < 0.1 µM.
In the same order, the values of `CC(C)(F)Cc1c(-c2ccc(F)c(Cl)c2)c(=O)n(-c2cncc(Cl)c2)c(=O)n1CC#N` [Compound I-307] are < 0.01 µM and < 0.1 µM.
As for `CC(C)(O)Cc1c(-c2ccc(F)c(Cl)c2)c(=O)n(-c2cncc(Cl)c2)c(=O)n1CC#N` [Compound I-308], in experiment [1], the 50% inhibitory concentration (IC50) is < 0.01 µM. Besides, the 50% effective concentration (EC50) in the experiment on SARS-CoV-2 is < 0.1 µM.
In the same order, the values of `N#CCn1c(N2CC(F)C2)c(-c2ccc(F)c(Cl)c2)c(=O)n(-c2cncc(Cl)c2)c1=O` [Compound I-309] are < 0.01 µM and < 0.1 µM.
Take `N#CCn1c(N2CC(C(F)(F)F)C2)c(-c2ccc(F)c(Cl)c2)c(=O)n(-c2cncc(C#N)c2)c1=O` [Compound I-310]: the IC50 in experiment [1] is < 0.01 µM. Further, the EC50 in the experiment on SARS-CoV-2 was < 0.1 µM.
In the case of `N#CCn1c(N2CC(OC(F)(F)F)C2)c(-c2ccc(F)c(Cl)c2)c(=O)n(-c2cncc(C#N)c2)c1=O` [Compound I-311], the IC50 in experiment [1] was < 0.01 µM. The EC50 with SARS-CoV-2 was < 0.1 µM.
For the compound `N#CCn1c(N2CC(C(F)F)C2)c(-c2ccc(F)c(Cl)c2)c(=O)n(-c2cncc(C#N)c2)c1=O` [Compound I-312], the IC50 in experiment [1] was < 0.01 µM. The EC50 with SARS-CoV-2 is < 0.1 µM.
In the same order, the values of `CC(C)(O)[C@@H]1CCN(c2c(-c3ccc(F)c(Cl)c3)c(=O)n(-c3cncc(C#N)c3)c(=O)n2CC#N)C1` [Compound I-313] are < 0.01 µM and < 0.1 µM.
In the same order, the values of `Cc1cc(-c2c(-c3ccc(F)c(Cl)c3)c(=O)n(-c3cncc(Cl)c3)c(=O)n2CC#N)on1` [Compound I-314] are < 0.01 µM and < 0.1 µM.
In the same order, the values of `N#CCn1c(N2CC3(C2)CC(F)(F)C3)c(-c2ccc(F)c(F)c2)c(=O)n(-c2cncc(Cl)c2)c1=O` [Compound I-315] are < 0.01 µM and < 0.1 µM.
On to `N#CCn1c(N2CC(C(F)(F)F)C2)c(-c2ccc(F)c(F)c2)c(=O)n(-c2cncc(Cl)c2)c1=O` [Compound I-316], for which the IC50 in experiment [1] is < 0.01 µM. The EC50 in the experiment with SARS-CoV-2 was < 0.1 µM.
In the same order, the values of `N#CCn1c(N2CC(O)(C(F)(F)F)C2)c(-c2ccc(F)c(F)c2)c(=O)n(-c2cncc(Cl)c2)c1=O` [Compound I-317] are < 0.01 µM and < 0.1 µM.
Consider `N#CCn1c(N2CC(OC(F)(F)F)C2)c(-c2ccc(F)c(F)c2)c(=O)n(-c2cncc(Cl)c2)c1=O` [Compound I-318], for which the IC50 in experiment [1] was < 0.01 µM. The EC50 with SARS-CoV-2 was < 0.1 µM.
With `N#CCn1c(N2CC(OC(F)F)C2)c(-c2ccc(F)c(F)c2)c(=O)n(-c2cncc(Cl)c2)c1=O` [Compound I-319], in experiment [1], the IC50 was < 0.01 µM. Also, the 50% effective concentration (EC50) with SARS-CoV-2 was < 0.1 µM.
As to `N#CCn1c(N2C[C@@H]3C[C@H]2CO3)c(-c2ccc(F)c(F)c2)c(=O)n(-c2cncc(Cl)c2)c1=O` [Compound I-320], the IC50 in experiment [1] is < 0.01 µM. Also, in the experiment on SARS-CoV-2, the EC50 was < 0.1 µM.
In the same order, the values of `N#CCn1c(N2CC(O)(c3ncccn3)C2)c(-c2ccc(F)c(F)c2)c(=O)n(-c2cncc(Cl)c2)c1=O` [Compound I-321] are < 0.01 µM and < 0.1 µM.
Turning to `N#CCn1c(N2CC(O)C2)c(-c2ccc(F)c(F)c2)c(=O)n(-c2cncc(Cl)c2)c1=O` [Compound I-322], in experiment [1], the IC50 is < 0.01 µM. Also, the EC50 in the experiment with SARS-CoV-2 was < 0.1 µM.
Turning to `N#CCn1c(N2CC3(C2)CC(F)(F)C3)c(-c2ccc(F)c(Cl)c2)c(=O)n(-c2cnc3cc(F)c(F)cn23)c1=O` [Compound I-323], in experiment [1], the IC50 was < 0.01 µM. Moreover, the EC50 in the experiment with SARS-CoV-2 was < 0.1 µM.
As for `N#CCn1c(CCC(F)(F)F)c(-c2ccc(F)c(Cl)c2)c(=O)n(-c2cncc(Cl)c2)c1=O` [Compound I-324], the IC50 in experiment [1] was < 0.01 µM. Further, the EC50 with SARS-CoV-2 is < 0.1 µM.
As to `N#CCn1c(N2CC3(C2)CC(F)(F)C3)c(-c2ccc(F)c(Cl)c2)c(=O)n(-c2cncc(OCF)c2)c1=O` [Compound I-325], in experiment [1], the IC50 is < 0.01 µM. For the same compound, in the experiment with SARS-CoV-2, the EC50 was < 0.1 µM.
In the same order, the values of `N#CCn1c(N2CCC(F)(F)CC2)c(-c2cc(F)c(F)c(F)c2)c(=O)n(-c2cncc(Cl)c2)c1=O` [Compound I-326] are < 0.01 µM and < 0.1 µM.
On the same counts, the results for `N#CCn1c(N2CCC(F)(F)CC2)c(-c2cc(F)c(F)c(Cl)c2)c(=O)n(-c2cncc(Cl)c2)c1=O` [Compound I-327] are < 0.01 µM and < 0.1 µM.
On the same counts, the results for `Cc1cc(-c2c(N3CCC(F)(F)CC3)n(CC#N)c(=O)n(-c3cncc(Cl)c3)c2=O)cs1` [Compound I-328] are 0.01 to 0.1 µM and < 0.1 µM.
Take `N#CCn1c(N2CCC(F)(F)CC2)c(-c2csc3ccccc23)c(=O)n(-c2cncc(Cl)c2)c1=O` [Compound I-329]: the IC50 in experiment [1] was < 0.01 µM. Also, in the experiment with SARS-CoV-2, the concentration giving a half-maximal response (EC50) was < 0.1 µM.
In the same order, the values of `N#CCn1c(N2CCC(F)(F)CC2)c(-c2cc(Cl)cc(C#N)c2)c(=O)n(-c2cncc(Cl)c2)c1=O` [Compound I-330] are < 0.01 µM and < 0.1 µM.
As to `N#CCn1c(N2CCC(F)(F)CC2)c(-c2cc(O)cc(Cl)c2)c(=O)n(-c2cncc(Cl)c2)c1=O` [Compound I-331], the concentration for half-maximal inhibition (IC50) in experiment [1] is < 0.01 µM. Also, the EC50 in the experiment on SARS-CoV-2 is < 0.1 µM.
On the same counts, the results for `N#CCn1c(N2CC3(C2)CC(F)(F)C3)c(-c2ccc(F)c(Cl)c2)c(=O)n(-c2cncc(OC(F)F)n2)c1=O` [Compound I-332] are < 0.01 µM and < 0.1 µM.
For the compound `N#CCn1c(N2CC(O)(C(F)F)C2)c(-c2cc(F)c(F)c(Cl)c2)c(=O)n(-c2cncc(Cl)c2)c1=O` [Compound I-333], the IC50 in experiment [1] is < 0.01 µM. In addition, the EC50 in the experiment on SARS-CoV-2 was < 0.1 µM.
On to `N#CCn1c(N2CC(OC(F)(F)F)C2)c(-c2ccc(F)c(Cl)c2)c(=O)n(-c2cncc(C(F)(F)F)n2)c1=O` [Compound I-334], for which the concentration for half-maximal inhibition (IC50) in experiment [1] is < 0.01 µM. The EC50 with SARS-CoV-2 is < 0.1 µM.
In the same order, the values of `N#CCn1c(N2CC(OC(F)F)C2)c(-c2ccc(F)c(Cl)c2)c(=O)n(-c2cncc(C(F)(F)F)n2)c1=O` [Compound I-335] are < 0.01 µM and < 0.1 µM.
In the same order, the values of `N#CCn1c(N2CC(O)(c3ncccn3)C2)c(-c2ccc(F)c(Cl)c2)c(=O)n(-c2cncc(C(F)F)n2)c1=O` [Compound I-336] are < 0.01 µM and < 0.1 µM.
With `Cc1cncc(-n2c(=O)c(-c3ccc(F)c(Cl)c3)c(N3CC(O)(c4ncccn4)C3)n(CC#N)c2=O)n1` [Compound I-337], in experiment [1], the concentration for half-maximal inhibition (IC50) is < 0.01 µM. For the same compound, the concentration for a half-maximal effect (EC50) in the experiment with SARS-CoV-2 was < 0.1 µM.
In the same order, the values of `N#CCn1c(N2CC(F)(C3CC3)C2)c(-c2ccc(F)c(Cl)c2)c(=O)n(-c2cncc(C#N)c2)c1=O` [Compound I-338] are < 0.01 µM and < 0.1 µM.
In the same order, the values of `N#CCn1c(N2CC3(C2)CC(F)(F)C3)c(-c2ccc(F)c(C(F)F)c2)c(=O)n(-c2cncc(Cl)c2)c1=O` [Compound I-339] are < 0.01 µM and < 0.1 µM.
In the same order, the values of `N#CCn1c(N2CC(O)(C(F)(F)F)C2)c(-c2ccc(F)c(C(F)F)c2)c(=O)n(-c2cncc(Cl)c2)c1=O` [Compound I-340] are < 0.01 µM and < 0.1 µM.
Turning to `N#CCn1c(N2CC(C(F)(F)F)C2)c(-c2ccc(F)c(C(F)F)c2)c(=O)n(-c2cncc(Cl)c2)c1=O` [Compound I-341], the 50% inhibitory concentration (IC50) in experiment [1] was < 0.01 µM. The EC50 with SARS-CoV-2 was < 0.1 µM.
In the same order, the values of `N#CCn1c(N2CC(OC(F)F)C2)c(-c2ccc(F)c(C(F)F)c2)c(=O)n(-c2cncc(Cl)c2)c1=O` [Compound I-342] are < 0.01 µM and < 0.1 µM.
On the same counts, the results for `N#CCn1c(N2C[C@@H]3C[C@H]2CO3)c(-c2ccc(F)c(C(F)F)c2)c(=O)n(-c2cncc(Cl)c2)c1=O` [Compound I-343] are < 0.01 µM and < 0.1 µM.
In the same order, the values of `Cc1cc(-n2c(=O)c(-c3ccc(F)c(Cl)c3)c(N3CC4(C3)CC(F)(F)C4)n(CC#N)c2=O)cc(=O)o1` [Compound I-344] are 0.01 to 0.1 µM and < 0.1 µM.
For the compound `N#CCn1c(N2CC(O)(C(F)F)C2)c(-c2ccc(F)c(Cl)c2)c(=O)n(-c2cncc(C(F)F)n2)c1=O` [Compound I-345], the IC50 in experiment [1] is < 0.01 µM. Further, in the experiment on SARS-CoV-2, the EC50 was < 0.1 µM.
